Data reported in PMC11363325, “A Novel Prodrug Strategy Based on Reversibly Degradable Guanidine Imides for High Oral Bioavailability and Prolonged Pharmacokinetics of Broad-Spectrum Anti-influenza Agents” (ACS Central Science, 2024).
Counter-ions that a name gives are not always drawn.

Columns and labels:
[1] = system: rgPR8(H275Y), A/Puerto Rico/8/1934 with the H275Y mutation in NA
[2] = system: rgA/Korea/09/2009Δ53–60 with the H275Y mutation in NA (rgKR09)
[3] = system: A/Korea/2785/2009 (H1N1) with the H275Y mutation in NA (KR2785)
[4] = system: rgA/Korea/09/2009Δ53–60(H275Y), A/H1N1(H275Y); set-up: species or system BALB/c mice; conditions: mouse, in vivo, po, 10 mg/kg

Structure (SMILES) | EC50 [1] [µM] | EC50 [2] [µM] | EC50 [3] [µM] | survival rate [4] | resistance factor (RF), ratio of EC50 against rgPR8(H275Y) to wild-type rgPR8 [1]
CCC(CC)O[C@@H]1C=C(C(=O)O)C[C@H](N=C(N2C(=O)[C@H]3CCCC[C@H]3C2=O)N2C(=O)[C@H]3CCCC[C@H]3C2=O)[C@H]1NC(C)=O [OSC-GCDI(C)] | 0.49 ± 0.01 | 3.7 ± 0.5 | 5.91 ± 0.85 | – | –
CCCCC1CC(=O)N(C(=N[C@H]2CC(C(=O)O)=C[C@@H](OC(CC)CC)[C@@H]2NC(C)=O)N2C(=O)CC(CCCC)C2=O)C1=O (stereo partly drawn) [OSC-GCDI(B)] | 3.41 ± 0.01 | 12.9 ± 0.65 | 17.6 ± 2.9 | – | –
CCC(CC)O[C@@H]1C=C(C(=O)O)C[C@H](N=C(N2C(=O)[C@H]3CC=CC[C@H]3C2=O)N2C(=O)[C@H]3CC=CC[C@H]3C2=O)[C@H]1NC(C)=O [OSC-GCDI(Ce)] | 1.9 ± 0.1 | 5.21 ± 0.02 | 13.22 ± 0.1 | – | –
CCC(CC)O[C@@H]1C=C(C(=O)O)C[C@H](N=C(N2C(=O)C3CCC(C)CC3C2=O)N2C(=O)C3CCC(C)CC3C2=O)[C@H]1NC(C)=O (stereo partly drawn) [OSC-GCDI(CM)] | 1.2 ± 0.05 | 4.43 ± 0.25 | 14 ± 5.15 | – | –
CCC(CC)O[C@@H]1C=C(C(=O)O)C[C@H](N=C(N2C(=O)CC(C)C2=O)N2C(=O)CC(C)C2=O)[C@H]1NC(C)=O (stereo partly drawn) [OSC-GCDI(M)] | 0.74 ± 0.05 | 1.96 ± 0.15 | 4.61 ± 0.35 | – | –
CCC(CC)O[C@@H]1C=C(C(=O)O)C[C@H](N=C(N2C(=O)CCC2=O)N2C(=O)CCC2=O)[C@H]1NC(C)=O [OSC-GCDI(S)] | 0.99 ± 0.01 | 2.2 ± 0.1 | 8.55 ± 2.15 | – | –
CCC(CC)O[C@@H]1C=C(C(=O)O)C[C@H](N=C(N2C(=O)CC(C)(C)C2=O)N2C(=O)CC(C)(C)C2=O)[C@H]1NC(C)=O [OSC-GCDI(D)] | 1.52 ± 0.2 | 4.37 ± 1.1 | 9.25 ± 2.4 | – | –
CCC(CC)O[C@@H]1C=C(C(=O)O)C[C@H](N=C(N2C(=O)c3ccccc3C2=O)N2C(=O)c3ccccc3C2=O)[C@H]1NC(C)=O [OSC-GCDI(P)] | 0.48 ± 0.01 | 4.61 ± 0.05 | 4.61 ± 0.35 | – | –
CCC(CC)O[C@@H]1C=C(C(=O)O)C[C@H](NC(=N)N)[C@H]1NC(C)=O [GOC·TFA, guanidino oseltamivir carboxylate] | – | – | – | all mice were eventually dead | –
CCC(CC)O[C@@H]1C=C(C(=O)O)C[C@H](NC(=N)N)[C@H]1NC(C)=O [GOC, guanidino oseltamivir carboxylate, reference compound] | 0.09 ± 0.01 | 0.11 ± 0.01 | 0.78 ± 0.01 | – | 18.0
NC12CC3CC(CC(C3)C1)C2 [AMT, Amantadine, reference compound] | > 100 | > 100 | > 100 | – | –
NC(=O)c1ncn([C@@H]2O[C@H](CO)[C@@H](O)[C@H]2O)n1 [RBV, Ribavirin, reference compound] | 16.4 ± 0.45 | 15.79 ± 0.15 | 18.3 ± 1.3 | – | –
CCC(CC)O[C@@H]1C=C(C(=O)O)C[C@H](N)[C@H]1NC(C)=O [OSC, oseltamivir carboxylate, reference compound] | 13.7 ± 2.7 | 25.9 ± 0.65 | 56.61 ± 0.3 | – | 274
